Data set [1] deals with MDA-MB-231 cells. Kind of data set: Flow cytometry of DPP-3 in MDA-MB-231 cells. The format is cell-based, human. The following applies: MDA-MB-231; 5 μM DPP-3, 5 min, flow cytometry. How it is done: (§1) Cells were plated on a 10 cm dish with 10 mL of DMEM/High Glucose (10% FBS, 1% P/S, L-Glutamine, Sodium pyruvate) 36-48 hours prior to the day of experiment and maintained at 37° C., 5% CO2 so as to obtain 80-90% confluency. Cells were washed with DPBS and trypsinized with 1 mL 0.05% Trypsin. 5 mL of DMEM/High Glucose (10% FBS, L-Glutamine, Sodium pyruvate) was added and cells were spun down at 1200 rpm for 3 min. Media was discarded and cells were resuspended in 5 mL of Live Cell Imaging Solution and again spun down at 1200 rpm for 3 min. The cells pellets obtained were resuspended in 3-5 mL of Live Cell Imaging Solution and divided into 500 μL aliquots. The aliquots were treated with either 0.2% DMSO carrier or 1 μM of PalmB/ML348 or 1 μM/5 μM of ML349 inhibitor. After 30 min of incubation at room temperature, 1 μL of 2.5 mM DPP-3 in DMSO was added to each aliquot for a final concentration of 5 μM, and the solutions were mixed. After 5 min incubation at room temperature, fluorescence signal in FITC channel was measured for 10000 cells (5000 for HeLa experiments) on a LSR-Fortessa 4-15 HTS (BD digital instrument, 488 nm laser with 530/30 nm filter for FITC; BD, Franklin Lakes, N.J., United States of America). For analyzing DPP2 in HEK293T cells, the aliquots were treated with either 0.2% DMSO carrier or 2 μM of PalmB, 5 or 20 μM of ML348/ML349 and then analyzed by the protocol as mentioned above. Data was analyzed by FlowJo software version 10.0.8. For comparison of A431 starved versus non-starved, parallel 10 cm dishes of A431 cells were plated in 10 mL of DMEM (high glucose, 10% FBS, 1% P/S), and grown for 36 h. The growth media was removed, and replaced by 10 mL of either DMEM (High glucose) with 10% FBS to maintain “growth” conditions, or DMEM (High glucose) without FBS respectively for “starvation” conditions, and incubated for 14 h. After trypsinization, both plates were treated with 5 mL of DMEM (high glucose) for spinning the cells down, and further processing and analysis were performed as described above by flow cytometry.
A general note: In flow cytometry, cells or beads pass a laser one at a time.

Data set [2] has as its system MCF-7 cells. In words: Flow cytometry of DPP-3 in MCF-7 cells. Conditions: 5 μM DPP-3, 5 min, flow cytometry. The class given is cell-based, human. As to the method: as §1
Data set [3] deals with HeLa cells. In words: Flow cytometry of DPP-3 in HeLa cells. The class given is cell-based, human. Conditions: 5 μM DPP-3, 5 min, flow cytometry. As to the method:
as §1

Data set [4] concerns the target T1, APT1 (Homo sapiens, UniProt O75608).
T1 construct: His-tag; made in house; host or cells: E. coli ROSETTA DE3
Kind of data set: In vitro kinetic assay and emission spectra of DPP-1, DPP-2, DPP-3 with purified APT1 (with detergent). The class given is biochemical. As to the method:
50 μL of 7.5 μM DPP1-3 in HEPES (20 mM, pH=7.4, 150 mM NaCl, 0.1% Triton X-100) were added to a 384-well black flat bottom plate (Corning Life Sciences, Corning, N.Y., United States of America) and placed in an Infinite M200 Pro (Tecan, Mannedorf, Switzerland) plate reader at 37° C. for 5 min to warm. 25 μL of either 4-(2-hydroxyethyl)-1-piperazineethanesulfonic acid (HEPES) buffer alone or HEPES buffer containing 150 nM APT1 or APT2, was added using a multi-channel pipette, resulting in a final concentration of 5 μM DPP1-3 and 50 nM APT1 or APT2. Fluorescence intensities (λex 490/9 nm, λem 545/20 nm, Gain 70, No. of flashes 25, Integration time 100 μs and Z-position 20000 μm) were measured at 30 second (s) time intervals for 20 min. At the end of 20 min kinetic run, emission spectra were obtained (λex 485 nm, Aem510-700 nm, Gain 100, No. of flashes 25, Integration time 100 μs and Z-position 20,000 μm).

A short description of data set [5]: Water solubility of probes (stated in words). The class given is physicochemical.
The subject of data set [6] is HEK293T cells. In words: Live cell fluorescence imaging and flow cytometry of DPP-2 and DPP-3 in HEK293T cells. The format is cell-based, human. Conditions: 1 μM DPP-2 for 15 min, microscopy or flow cytometry. How it is done: HEK293T (650,000 cells per dish) cells were plated with 1.5 mL of Dulbecco's Modified Eagle Medium (DMEM) (High Glucose, 10% fetal bovine serum (FBS)) in a 35 mm glass bottom dish (D35-10-1.5-N; Cellvis, Mountain View, Calif., United States of America) 24 hrs prior to imaging. 30 min before the addition of the DPP probe, the cell culture media was removed and cells were washed with 1 mL of Delbecco's phosphate-buffered saline (DPBS). The media was then replaced with 1 mL of DMEM containing 1 μM Hoechst 33342 and either 0.1% DMSO carrier as a control, 1 or 2 μM Palm B, 0.1, 1.0, or 5 μM ML348, and incubated for 30 min at 37° C. and 5% CO2. The media was removed, the cells were washed with 1 mL of Live Cell Imaging Solution (Thermo Fisher Scientific, Waltham, Mass., United States of America), and 1 mL of 1 μM DPP-2 or DPP-3 in Live Cell Imaging Solution was added to each plate. For ML348 0.1, 1.0, or 5 μM was added along with DPP-2 or DPP-3. After incubation for 15 min at 37° C. and 5% CO2, images were obtained on an inverted epi-fluorescence microscope (Olympus IX83; Olympus Corporation, Tokyo, Japan) attached with EMCCD camera (Photometrics EVOLVE™ Delta; Photometrics, Tucson, Ariz., United States of America) with 40× oil objective (N/A 1.3) for DPP-2 (excitation filter 500/20, dichroic chroma 89007, emission filter 535/30, exposure time 200 ms, EM gain 25), Hoechst 33342: (excitation filter 402/15, emission filter 455/50, dichroic chroma 89013, exposure time 30 ms, EM gain 25), and brightfield (exposure time 5 ms, EM gain 5), and for DPP-3 (exposure time 500 ms, EM gain 150), Hoechst 33342: (exposure time 30 ms, EM gain 25), and brightfield (exposure time 20 ms, EM gain 5). Analyses were performed in ImageJ. For data analysis, the average fluorescence intensity per image in each experimental condition was obtained by selecting regions of interest (ROIs) in the brightfield image. For display, the data were normalized to the average fluorescence intensity of the control conditions. Each experiment was repeated at least three separate times with identical results.
Cells were plated on a 10 cm dish with 10 mL of DMEM/High Glucose (10% FBS, 1% P/S, L-Glutamine, Sodium pyruvate) 36-48 hours prior to the day of experiment and maintained at 37° C., 5% CO2 so as to obtain 80-90% confluency. Cells were washed with DPBS and trypsinized with 1 mL 0.05% Trypsin. 5 mL of DMEM/High Glucose (10% FBS, L-Glutamine, Sodium pyruvate) was added and cells were spun down at 1200 rpm for 3 min. Media was discarded and cells were resuspended in 5 mL of Live Cell Imaging Solution and again spun down at 1200 rpm for 3 min. The cells pellets obtained were resuspended in 3-5 mL of Live Cell Imaging Solution and divided into 500 μL aliquots. The aliquots were treated with either 0.2% DMSO carrier or 1 μM of PalmB/ML348 or 1 μM/5 μM of ML349 inhibitor. After 30 min of incubation at room temperature, 1 μL of 2.5 mM DPP-3 in DMSO was added to each aliquot for a final concentration of 5 μM, and the solutions were mixed. After 5 min incubation at room temperature, fluorescence signal in FITC channel was measured for 10000 cells (5000 for HeLa experiments) on a LSR-Fortessa 4-15 HTS (BD digital instrument, 488 nm laser with 530/30 nm filter for FITC; BD, Franklin Lakes, N.J., United States of America). For analyzing DPP2 in HEK293T cells, the aliquots were treated with either 0.2% DMSO carrier or 2 μM of PalmB, 5 or 20 μM of ML348/ML349 and then analyzed by the protocol as mentioned above. Data was analyzed by FlowJo software version 10.0.8. For comparison of A431 starved versus non-starved, parallel 10 cm dishes of A431 cells were plated in 10 mL of DMEM (high glucose, 10% FBS, 1% P/S), and grown for 36 h. The growth media was removed, and replaced by 10 mL of either DMEM (High glucose) with 10% FBS to maintain “growth” conditions, or DMEM (High glucose) without FBS respectively for “starvation” conditions, and incubated for 14 h. […]

The subject of data set [7] is A431 cells. Kind of data set: DPP-3 in A431 cells, starvation and EGF stimulation (flow cytometry, microscopy). The format is cell-based, human. Conditions: serum starved A431; 1 ng/mL EGF for 15 min; 5 μM DPP-3. As to the method: as §1
Parallel 35 mm glass bottom dishes (D35-10-1.5-N; Cellvis, Mountain View, Calif., United States of America) of A431 cells (450,000) were plated in 2 mL of DMEM glutamax (high glucose, 10% FBS, 1% P/S), and grown for 36 h. The growth media was removed, and replaced by 1.5 mL of either DMEM (High glucose) with 10% FBS to maintain “growth” conditions, or DMEM (High glucose) without FBS respectively for “starvation” conditions, and incubated for 24 h. […] For data analysis, the average fluorescence intensity per image in each experimental condition was obtained by selecting ROIs in the brightfield image. For display, the data were normalized to the average fluorescence intensity of the control conditions. […]

T1 sequence (O75608 whole entry): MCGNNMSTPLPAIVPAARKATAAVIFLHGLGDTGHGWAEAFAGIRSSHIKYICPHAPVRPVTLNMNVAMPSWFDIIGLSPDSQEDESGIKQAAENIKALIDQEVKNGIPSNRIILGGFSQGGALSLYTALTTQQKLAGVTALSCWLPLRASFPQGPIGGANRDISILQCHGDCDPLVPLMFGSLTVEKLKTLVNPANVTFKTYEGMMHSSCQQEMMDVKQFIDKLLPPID

As to `CCCCCCCC(=O)SC[C@@H](C(=O)N[C@@H](CCCCN)C(=O)OC)N(C)C(=O)Oc1ccc2c(c1)Oc1cc(N(C)C)ccc1C21OC(=O)c2ccccc21` (stereo partly drawn) [DPP-3], the “detection of endogenous depalmitoylase activities by probe” value in data set [1], in data set [2] and in data set [3] was “can detect endogenous depalmitoylase activities” each time. For the same compound, the “enhancement in fluorescence signal” value in data set [4] (5 μM probe, 50 nM APT1, 20 min) was determined as 400 fold. Also, in data set [4] (in vitro, purified APT1 vs APT2), the “selectivity for APT1 over APT2” value is recorded as “modest selectivity for APT1 over APT2”. Moreover, in data set [4] (purified APT1), the “performance as substrate / reaction kinetics” value was “striking reaction kinetics”. The “water solubility” value in data set [5] was “water soluble”. In addition, the “probe fluorescent signal in live cells” value in data set [6] is on record as “functions in live cells”.
Regarding “EGF: epidermal growth factor, obtained from Gold Biotechnology (NSDSECPLSHDGYCLHDGVCMYIEALDKYACNCVVGYIGERCQYRDLKWWELR; UniProt P01133 971-1023, looked up)”, in data set [7], the “effect on depalmitoylation activity measured by DPP-3” value is reported as “inhibition of depalmitoylation activity”.

Values taken from US10413583B2, “Synthetic substrates for enzymes that catalyze reactions of modified cysteines and related methods” (The University of Chicago, priority 2016, dated 2019).
